US9980943B2, “Methods of treating muscular dystrophy” (BOARD OF REGENTS OF THE NEVADA SYSTEM OF HIGHER EDUCATION, …, priority 2013, dated 2018)
Read-outs that look alike come from different tables or passages of the source.

What was measured:
[1] = tested on: α7 integrin (LacZ reporter in α7LacZ+/− myoblasts); test: qHTS of the LOPAC library and MLSMR (online screen, α7LacZ+/− myoblasts); settings: for activation at 0.307 µM / activation at 1.53 µM / activation at 7.66 µM / activation at 38.3 µM / Emax / EC50: Mus musculus, Myoblast; for activation at 0.307 µM: read-out: Activity at 0.307 uM [%] **; for activation at 1.53 µM: read-out: Activity at 1.530 uM [%] **; for activation at 7.66 µM: read-out: Activity at 7.660 uM [%] **; for activation at 38.3 µM: read-out: Activity at 38.30uM [%] **; for EC50: read-out: Fit LogAC50 (converted)
[2] = tested on: α7 integrin (LacZ reporter in α7+/LacZ myotubes); test: Myotube α7 integrin FDG assay (Burkin assay in myotubes, 96-well); assay type: cell-based, mouse; settings: myotubes
[3] = tested on: β-galactosidase in CMV-LacZ C2C12 myotubes; test: CMV-LacZ secondary screen in C2C12 myotubes (β-Gal stabilizing assay); assay type: cell-based, mouse; settings: for CMV-LACZ in Myotubes (β-galactosidase activity relative to DMSO): CMV-LacZ C2C12 myotubes, 96-well format; for CMV-LACZ in Myotubes, signal relative to DMSO: C2C12 CMV-LacZ myotubes, fold relative to DMSO
Outline: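 CMV-LacZ C2C12 line (clonal, FDG-screened); myoblasts/myotubes dosed 0.5–40 μM (0.5, 1, 5, 10, 20, 40 μM); n=2 per point; β-gal stabilization read-out.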

[4] = tested on: α7 integrin (LacZ reporter in α7βgal+/− myoblasts); test: Myoblast α7+/LacZ integrin FDG assay (Burkin assay in myoblasts, 96-well); assay type: cell-based, mouse; settings: α7+/LacZ myoblasts, 96-well
[5] = 48 h, read-out: Fit Infinite Activity [%]

Compound	activation at 0.307 µM ([1]; 48 h)	activation at 1.53 µM ([1]; 48 h)	activation at 7.66 µM ([1]; 48 h)	activation at 38.3 µM ([1]; 48 h)	Emax [1, 5]	EC50 [1]	further results
CC(OC(=O)c1cc(-c2cccnc2)nc2ccccc12)C(=O)Nc1ccc2ccccc2c1 (stereo not drawn) [Compound 1]	0%	143%	198%	191%	195%	1120 nM	
Cc1cccc(OCc2nc(C#N)c(N3CCCC3)o2)c1 [Compound 2]	9.52%	57%	175%	223%	231%	3550 nM	
COc1ccccc1-c1coc2c3c(ccc2c1=O)OC1CCCCN1C3 (stereo not drawn) [Compound 3]	-34.2%	9.57%	154%	159%	158%	2240 nM	
Cc1ccccc1C(=O)Nc1scc(-c2ccc(Br)cc2)c1C(=O)O [Compound 4]	9.85%	38.3%	119%	137%	137%	2820 nM	
COc1cc2c(cc1NC(=O)Cc1ccc(C)cc1)oc1ccccc12 [Compound 5]	-1.8%	58.4%	87.2%	687%	87.4%	1120 nM	
COCc1c(C(=O)OCc2nc(=O)c3sccc3[nH]2)oc2ccccc12 [Compound 6]	-39.8%	19.2%	60.6%	68.1%	69.6%	1120 nM	
O=C(NC1CCCC1)c1ccc(CS(=O)(=O)Cc2ccccc2F)o1 [Compound 7]	13.4%	25.3%	80.6%	105%	107%	4470 nM	
CN(C)S(=O)(=O)c1cccc(C(=O)Nc2ccc3c(c2)CCC3)c1 [Compound 8]	-15.4%	-10.6%	96.4%	94.3%	96%	2820 nM	
Cc1c(C(=O)O)cccc1-n1c(C)cc(/C=N/Nc2ccc([N+](=O)[O-])cn2)c1C [Compound 9]	-24.5%	6.29%	68.1%	88.7%	92.2%	2820 nM	Score [1]: 85; Emax ([1]; read-out: Max Response [%]): 88.7%
Cc1ccc(NP(=O)(Nc2ccc(C)cc2)Nc2ccc(C)cc2)cc1 [Compound 10]	0%	11.4%	94.1%	102%	102%	3160 nM	
Cc1cc(OCC(=O)NC(C)C)ccc1Cl [Compound 11]	0%	7.6%	83.9%	102%	101%	3980 nM	
COC(=O)C1=C(C)N=C(C)/C(=C(/O)OC)C1c1ccccc1OCc1c(C)no[n+]1[O-] (stereo not drawn) [Compound 12]	12.3%	36.5%	84.6%	100%	102%	2820 nM	
COc1ccc(NC(=O)c2cccc(N3C(=O)c4ccc(C(=O)Nc5ccc(OC)c(O)c5)cc4C3=O)c2)cc1O [Compound 13]	-24.8%	-27.4%	80.7%	95.6%	94.7%	4470 nM	
CCOc1ccc(S(=O)(=O)NCCC(=O)NCC(c2cccs2)N2CCOCC2)cc1 (stereo not drawn) [Compound 14]	-21.6%	3.54%	59.1%	61.7%	62.8%	2240 nM	
CSc1ncccc1C(=O)OCC(=O)c1cc(C)n(C)c1C [MLS002245351-01]							Burkin Assay in Myotubes (signal relative to DMSO) ([2]; 0.5 uM): 1.047; Burkin Assay in Myotubes (signal relative to DMSO) ([2]; 1 uM): 0.9463; Burkin Assay in Myotubes (signal relative to DMSO) ([2]; 5 uM): 1.107; Burkin Assay in Myotubes (signal relative to DMSO) ([2]; 10 uM): 1.042; Burkin Assay in Myotubes (signal relative to DMSO) ([2]; 20 uM): 1.061; Burkin Assay in Myotubes (signal relative to DMSO) ([2]; 40 uM): 1.031; CMV-LACZ in Myotubes (β-galactosidase activity relative to DMSO) ([3]; 5 uM): 0.8306; CMV-LACZ in Myotubes (β-galactosidase activity relative to DMSO) ([3]; 10 uM): 1.001; CMV-LACZ in Myotubes (β-galactosidase activity relative to DMSO) ([3]; 20 uM): 1.009; CMV-LACZ in Myotubes (β-galactosidase activity relative to DMSO) ([3]; 40 uM): 0.9307; Burkin Assay in Myoblasts, value relative to DMSO ([4]; 0.5 uM): 1.082; Burkin Assay in Myoblasts, value relative to DMSO ([4]; 1 uM): 1.037; Burkin Assay in Myoblasts, value relative to DMSO ([4]; 5 uM): 1.034; Burkin Assay in Myoblasts, value relative to DMSO ([4]; 10 uM): 0.9704; Burkin Assay in Myoblasts, value relative to DMSO ([4]; 20 uM): 0.9001; Burkin Assay in Myoblasts, value relative to DMSO ([4]; 40 uM): 0.8657
N#Cc1ccccc1S(=O)(=O)N1CCN(C(=O)C2CCCCC2)CC1 [MLS002251986-01]							Burkin Assay in Myotubes, α7 integrin LacZ reporter signal relative to DMSO ([2]; 0.5 uM): 1.121; Burkin Assay in Myotubes, α7 integrin LacZ reporter signal relative to DMSO ([2]; 1 uM): 0.9515; Burkin Assay in Myotubes, α7 integrin LacZ reporter signal relative to DMSO ([2]; 5 uM): 1.073; Burkin Assay in Myotubes, α7 integrin LacZ reporter signal relative to DMSO ([2]; 10 uM): 1.088; Burkin Assay in Myotubes, α7 integrin LacZ reporter signal relative to DMSO ([2]; 20 uM): 0.9882; Burkin Assay in Myotubes, α7 integrin LacZ reporter signal relative to DMSO ([2]; 40 uM): 0.9112; CMV-LACZ in Myotubes, signal relative to DMSO ([3]; 5 uM): 0.9831; CMV-LACZ in Myotubes, signal relative to DMSO ([3]; 10 uM): 0.9609; CMV-LACZ in Myotubes, signal relative to DMSO ([3]; 20 uM): 0.8238; CMV-LACZ in Myotubes, signal relative to DMSO ([3]; 40 uM): 0.9776; Burkin Assay in Myoblasts, signal relative to DMSO ([4]; 0.5 uM): 1.046; Burkin Assay in Myoblasts, signal relative to DMSO ([4]; 1 uM): 0.9231; Burkin Assay in Myoblasts, signal relative to DMSO ([4]; 5 uM): 0.9512; Burkin Assay in Myoblasts, signal relative to DMSO ([4]; 10 uM): 0.8667; Burkin Assay in Myoblasts, signal relative to DMSO ([4]; 20 uM): 0.9793; Burkin Assay in Myoblasts, signal relative to DMSO ([4]; 40 uM): 0.9184
CCc1c(C2(O)CCCCC2)[nH]c2ncccc12 [MLS002402866-01]							Burkin Assay in Myotubes (signal relative to DMSO) ([2]; 0.5 uM): 1.09; Burkin Assay in Myotubes (signal relative to DMSO) ([2]; 1 uM): 1.258; Burkin Assay in Myotubes (signal relative to DMSO) ([2]; 5 uM): 1.181; Burkin Assay in Myotubes (signal relative to DMSO) ([2]; 10 uM): 1; Burkin Assay in Myotubes (signal relative to DMSO) ([2]; 20 uM): 1.075; Burkin Assay in Myotubes (signal relative to DMSO) ([2]; 40 uM): 0.9237; CMV-LACZ in Myotubes, signal relative to DMSO ([3]; 5 uM): 0.8739; CMV-LACZ in Myotubes, signal relative to DMSO ([3]; 10 uM): 0.7966; CMV-LACZ in Myotubes, signal relative to DMSO ([3]; 20 uM): 0.832; CMV-LACZ in Myotubes, signal relative to DMSO ([3]; 40 uM): 0.7307; Burkin Assay in Myoblasts, value relative to DMSO ([4]; 0.5 uM): 1.037; Burkin Assay in Myoblasts, value relative to DMSO ([4]; 1 uM): 1.1052; Burkin Assay in Myoblasts, value relative to DMSO ([4]; 5 uM): 0.9113; Burkin Assay in Myoblasts, value relative to DMSO ([4]; 10 uM): 0.9376; Burkin Assay in Myoblasts, value relative to DMSO ([4]; 20 uM): 0.8943; Burkin Assay in Myoblasts, value relative to DMSO ([4]; 40 uM): 0.7689
C[C@H]1CNC(=O)c2c(C(=O)Nc3ccc(CNC(=O)OC(C)(C)C)cc3)ncn21 [MLS003126425-01]							Burkin Assay in Myotubes (signal relative to DMSO) ([2]; 0.5 uM): 1.104; Burkin Assay in Myotubes (signal relative to DMSO) ([2]; 1 uM): 1.203; Burkin Assay in Myotubes (signal relative to DMSO) ([2]; 5 uM): 1.422; Burkin Assay in Myotubes (signal relative to DMSO) ([2]; 10 uM): 1.6782; Burkin Assay in Myotubes (signal relative to DMSO) ([2]; 20 uM): 0.7372; Burkin Assay in Myotubes (signal relative to DMSO) ([2]; 40 uM): 0.5208; CMV-LACZ in Myotubes (β-galactosidase activity relative to DMSO) ([3]; 5 uM): 1.354; CMV-LACZ in Myotubes (β-galactosidase activity relative to DMSO) ([3]; 10 uM): 0.8902; CMV-LACZ in Myotubes (β-galactosidase activity relative to DMSO) ([3]; 20 uM): 0.743; CMV-LACZ in Myotubes (β-galactosidase activity relative to DMSO) ([3]; 40 uM): 0.7123; Burkin Assay in Myoblasts, value relative to DMSO ([4]; 0.5 uM): 1.146; Burkin Assay in Myoblasts, value relative to DMSO ([4]; 1 uM): 1.1398; Burkin Assay in Myoblasts, value relative to DMSO ([4]; 5 uM): 1.282; Burkin Assay in Myoblasts, value relative to DMSO ([4]; 10 uM): 1.254; Burkin Assay in Myoblasts, value relative to DMSO ([4]; 20 uM): 1.13; Burkin Assay in Myoblasts, value relative to DMSO ([4]; 40 uM): 0.4401
